# Reference: patent publication US8168592B2 (Amgen Inc., priority 2005, dated 2012)
# Bridge positions count the residues as written; N and C are the ends. Square brackets hold non-standard residues; d marks the D form. Peptide text beside a SMILES is read from it. hArg = N=C(N)NCCCC[C@H](N)C(=O)O; Cit = NC(=O)NCCC[C@H](N)C(=O)O; Aze = O=C(O)[C@@H]1CCN1
# Target: T1, CGRP1 receptor (Homo sapiens, UniProt O60894+Q16602)
# T1 construct: SK-N-MC cells express CRLR and RAMP1, which form CGRP1 receptor; endogenous in cells; host or cells: SK-N-MC human neuroblastoma cells
# Experiment: in vitro CGRP1 receptor mediated cAMP assay in SK-N-MC cells
# Format: cell-based
# Conditions: Peptide IC50, Table 2C; unconjugated peptide
# How it was run: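 Human SK-N-MC neuroblastoma cells, which endogenously express CRLR/RAMP1, were plated two days before assay and preincubated in plasma-free medium for 15 minutes at room temperature. Cells were then lysed for 30 minutes at 37° C, and cAMP in the lysates was quantified by competitive cAMP-AP chemiluminescent ELISA.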
# T1 sequence (Q16602 23-461): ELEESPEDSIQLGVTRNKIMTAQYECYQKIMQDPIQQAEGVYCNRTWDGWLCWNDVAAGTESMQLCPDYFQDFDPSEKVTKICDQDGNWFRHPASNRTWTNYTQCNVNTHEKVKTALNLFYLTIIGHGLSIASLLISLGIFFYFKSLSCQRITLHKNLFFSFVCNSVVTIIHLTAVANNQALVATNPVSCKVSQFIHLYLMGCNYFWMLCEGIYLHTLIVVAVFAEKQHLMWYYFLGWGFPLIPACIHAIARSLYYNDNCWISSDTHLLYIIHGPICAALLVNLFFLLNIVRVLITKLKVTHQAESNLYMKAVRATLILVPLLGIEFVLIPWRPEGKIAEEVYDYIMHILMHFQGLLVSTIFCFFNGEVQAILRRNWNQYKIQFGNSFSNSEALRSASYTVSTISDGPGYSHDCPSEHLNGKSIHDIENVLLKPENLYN
# T1 sequence (O60894 27-148): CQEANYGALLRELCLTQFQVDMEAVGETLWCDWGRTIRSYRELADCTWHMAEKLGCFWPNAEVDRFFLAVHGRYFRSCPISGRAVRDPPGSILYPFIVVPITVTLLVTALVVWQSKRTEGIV
row,SMILES,IC50
1,CC(=O)N[C@@H](Cc1c[nH]c2ccccc12)C(=O)N[C@H](C(=O)N[C@H]1CCC(=O)NCCCC[C@@H](C(=O)NCC(=O)N[C@@H](CC(C)C)C(=O)N[C@@H](CC(C)C)C(=O)N[C@@H](CO)C(=O)N[C@@H](CCCNC(N)=O)C(=O)N[C@@H](CO)C(=O)NCC(=O)NCC(=O)N[C@H](C(=O)N[C@H](C(=O)N[C@@H](CCCNC(=N)N)C(=O)N[C@@H](CCCCN)C(=O)N[C@@H](CC(N)=O)C(=O)N[C@@H](Cc2ccccc2)C(=O)N[C@H](C(=O)N2CCC[C@H]2C(=O)N[C@H](C(=O)N[C@@H](CC(=O)O)C(=O)N[C@H](C(=O)NCC(=O)N2CCC[C@H]2C(=O)N[C@@H](Cc2ccccc2)C(=O)N[C@@H](C)C(=O)N[C@@H](Cc2ccccc2)C(N)=O)C(C)C)[C@@H](C)O)C(C)C)C(C)C)C(C)C)NC(=O)[C@H](CC(C)C)NC(=O)[C@H](CCCNC(=N)N)NC(=O)[C@H](Cc2c[nH]cn2)NC1=O)C(C)C [compound 893] (Ac-WVEHRLKGLLS[Cit]SGGVVRKNFVPTDVGPFAF-NH2; lactam 3-7),1.64 nM
2,CC(=O)N[C@@H](Cc1c[nH]c2ccccc12)C(=O)N[C@H](C(=O)N[C@H]1CCC(=O)NCCCC[C@@H](C(=O)NCC(=O)N[C@@H](CC(C)C)C(=O)N[C@@H](CC(C)C)C(=O)N[C@@H](CO)C(=O)N[C@@H](CCCCNC(=N)N)C(=O)N[C@@H](CO)C(=O)NCC(=O)NCC(=O)N[C@H](C(=O)N[C@H](C(=O)N[C@@H](CCCCNC(=N)N)C(=O)N[C@@H](CCCCN)C(=O)N[C@@H](CC(N)=O)C(=O)N[C@@H](Cc2ccccc2)C(=O)N[C@H](C(=O)N2CCC[C@H]2C(=O)N[C@H](C(=O)N[C@@H](CC(=O)O)C(=O)N[C@H](C(=O)NCC(=O)N2CCC[C@H]2C(=O)N[C@@H](Cc2ccccc2)C(=O)N[C@@H](C)C(=O)N[C@@H](Cc2ccccc2)C(N)=O)C(C)C)[C@@H](C)O)C(C)C)C(C)C)C(C)C)NC(=O)[C@H](CC(C)C)NC(=O)[C@H](CCCNC(=N)N)NC(=O)[C@H](Cc2c[nH]cn2)NC1=O)C(C)C [compound 905] (Ac-WVEHRLKGLLS[hArg]SGGVV[hArg]KNFVPTDVGPFAF-NH2; lactam 3-7),1.7 nM
3,CC(=O)N[C@@H](Cc1c[nH]c2ccccc12)C(=O)N[C@H](C(=O)N[C@H]1CCC(=O)NCCCC[C@@H](C(=O)NCC(=O)N[C@@H](CC(C)C)C(=O)N[C@@H](CC(C)C)C(=O)N[C@@H](CO)C(=O)N[C@@H](CCCNC(N)=O)C(=O)N[C@@H](CO)C(=O)NCC(=O)NCC(=O)N[C@H](C(=O)N[C@H](C(=O)N[C@@H](CCCCNC(=N)N)C(=O)N[C@@H](CCCCN)C(=O)N[C@@H](CC(N)=O)C(=O)N[C@@H](Cc2ccccc2)C(=O)N[C@H](C(=O)N2CCC[C@H]2C(=O)N[C@H](C(=O)N[C@@H](CC(=O)O)C(=O)N[C@H](C(=O)NCC(=O)N2CCC[C@H]2C(=O)N[C@@H](Cc2ccccc2)C(=O)N[C@@H](C)C(=O)N[C@@H](Cc2ccccc2)C(N)=O)C(C)C)[C@@H](C)O)C(C)C)C(C)C)C(C)C)NC(=O)[C@H](CC(C)C)NC(=O)[C@H](CCCNC(=N)N)NC(=O)[C@H](Cc2c[nH]cn2)NC1=O)C(C)C [compound 906] (Ac-WVEHRLKGLLS[Cit]SGGVV[hArg]KNFVPTDVGPFAF-NH2; lactam 3-7),1.15 nM

# Same assay, conditions: Table 2C; unconjugated peptide; read-out: Peptide IC50
row,SMILES,IC50
1,CC(=O)N[C@@H](Cc1c[nH]c2ccccc12)C(=O)N[C@H](C(=O)N[C@H](C(=O)N[C@@H](Cc1c[nH]cn1)C(=O)N[C@@H](CCC(N)=O)C(=O)N[C@@H](CC(C)C)C(=O)N[C@@H](C)C(=O)NCC(=O)N[C@@H](CC(C)C)C(=O)N[C@@H](CC(C)C)C(=O)N[C@@H](CO)C(=O)N[C@@H](CCC(N)=O)C(=O)N[C@@H](CO)C(=O)NCC(=O)NCC(=O)N[C@H](C(=O)N[C@H](C(=O)N[C@@H](CCCCNC(=N)N)C(=O)N[C@@H](CCCCN)C(=O)N[C@@H](CC(N)=O)C(=O)N[C@@H](Cc1ccccc1)C(=O)N[C@H](C(=O)N1CCC[C@H]1C(=O)N[C@H](C(=O)N[C@@H](CC(=O)O)C(=O)N[C@H](C(=O)NCC(=O)N1CCC[C@H]1C(=O)N[C@@H](Cc1ccccc1)C(=O)N[C@@H](C)C(=O)N[C@@H](Cc1ccccc1)C(N)=O)C(C)C)[C@@H](C)O)C(C)C)C(C)C)C(C)C)[C@@H](C)O)C(C)C [compound 885] (Ac-WVTHQLAGLLSQSGGVV[hArg]KNFVPTDVGPFAF-NH2),1.42 nM
2,CC(=O)N[C@@H](Cc1c[nH]c2ccccc12)C(=O)N[C@H](C(=O)N[C@H]1CCC(=O)NCCCC[C@@H](C(=O)NCC(=O)N[C@H]2CCC(=O)NCCCC[C@@H](C(=O)NCC(=O)NCC(=O)N[C@H](C(=O)N[C@H](C(=O)N[C@@H](CCCCNC(=N)N)C(=O)N[C@@H](CCCCN)C(=O)N[C@@H](CC(N)=O)C(=O)N[C@@H](Cc3ccccc3)C(=O)N[C@H](C(=O)N3CCC[C@H]3C(=O)N[C@H](C(=O)N[C@@H](CC(=O)O)C(=O)N[C@H](C(=O)NCC(=O)N3CCC[C@H]3C(=O)N[C@@H](Cc3ccccc3)C(=O)N[C@@H](C)C(=O)N[C@@H](Cc3ccccc3)C(N)=O)C(C)C)[C@@H](C)O)C(C)C)C(C)C)C(C)C)NC(=O)[C@H](CCCNC(N)=O)NC(=O)[C@H](CO)NC(=O)[C@H](CC(C)C)NC2=O)NC(=O)[C@H](CC(C)C)NC(=O)[C@H](CCCNC(=N)N)NC(=O)[C@H](Cc2c[nH]cn2)NC1=O)C(C)C [compound 902],0.49 nM
3,CC(=O)N[C@@H](Cc1c[nH]c2ccccc12)C(=O)N[C@H](C(=O)N[C@H]1CCC(=O)NCCCC[C@@H](C(=O)NCC(=O)N[C@@H](CC(C)C)C(=O)N[C@@H](CC(C)C)C(=O)N[C@@H](CO)C(=O)N[C@@H](CCCNC(N)=O)C(=O)N[C@@H](CO)C(=O)NCC(=O)NCC(=O)N[C@H](C(=O)N[C@H](C(=O)N[C@@H](CCCCNC(=N)N)C(=O)N[C@@H](CCCCN)C(=O)N[C@@H](CC(N)=O)C(=O)N[C@@H](Cc2ccccc2)C(=O)N[C@H](C(=O)N2CCC[C@H]2C(=O)N[C@H](C(=O)N[C@@H](CC(=O)O)C(=O)N[C@H](C(=O)NCC(=O)N2CCC[C@H]2C(=O)N[C@@H](Cc2ccccc2)C(=O)N[C@@H](C)C(=O)N[C@@H](Cc2ccccc2)C(N)=O)C(C)C)[C@@H](C)O)C(C)C)C(C)C)C(C)C)NC(=O)[C@H](CC(C)C)NC(=O)[C@H](CCCNC(N)=O)NC(=O)[C@H](Cc2c[nH]cn2)NC1=O)C(C)C [compound 907] (Ac-WVEH[Cit]LKGLLS[Cit]SGGVV[hArg]KNFVPTDVGPFAF-NH2; lactam 3-7),0.83 nM
4,CC(=O)N[C@@H](Cc1c[nH]c2ccccc12)C(=O)N[C@H](C(=O)N[C@H]1CCC(=O)NCCCC[C@@H](C(=O)NCC(=O)N[C@@H](CC(C)C)C(=O)N[C@@H](CC(C)C)C(=O)N[C@@H](CO)C(=O)N[C@@H](CCCNC(N)=O)C(=O)N[C@@H](CO)C(=O)NCC(=O)NCC(=O)N[C@H](C(=O)N[C@H](C(=O)N[C@@H](CCCCNC(=N)N)C(=O)N[C@@H](CCCCN)C(=O)N[C@@H](CC(N)=O)C(=O)N[C@@H](Cc2ccccc2)C(=O)N[C@H](C(=O)N2CCC[C@H]2C(=O)N[C@H](C(=O)N[C@@H](CC(=O)O)C(=O)N[C@H](C(=O)NCC(=O)N2CCC[C@H]2C(=O)N[C@@H](Cc2ccccc2)C(=O)N[C@@H](C)C(=O)N[C@@H](Cc2ccccc2)C(N)=O)C(C)C)[C@@H](C)O)C(C)C)C(C)C)C(C)C)NC(=O)[C@H](CC(C)C)NC(=O)[C@H](CCCCNC(=N)N)NC(=O)[C@H](Cc2c[nH]cn2)NC1=O)C(C)C [compound 908] (Ac-WVEH[hArg]LKGLLS[Cit]SGGVV[hArg]KNFVPTDVGPFAF-NH2; lactam 3-7),1.28 nM
5,CC(=O)N[C@@H](Cc1c[nH]c2ccccc12)C(=O)N[C@H](C(=O)N[C@H]1CCC(=O)NCCCC[C@@H](C(=O)NCC(=O)N[C@@H](CC(C)C)C(=O)N[C@@H](CC(C)C)C(=O)N[C@@H](CO)C(=O)N[C@@H](CCCNC(N)=O)C(=O)N[C@@H](CO)C(=O)NCC(=O)N2CC[C@H]2C(=O)N[C@H](C(=O)N[C@H](C(=O)N[C@@H](CCCCNC(=N)N)C(=O)N[C@@H](CCCCN)C(=O)N[C@@H](CC(N)=O)C(=O)N[C@@H](Cc2ccccc2)C(=O)N[C@H](C(=O)N2CCC[C@H]2C(=O)N[C@H](C(=O)N[C@@H](CC(=O)O)C(=O)N[C@H](C(=O)NCC(=O)N2CCC[C@H]2C(=O)N[C@@H](Cc2ccccc2)C(=O)N[C@@H](C)C(=O)N[C@@H](Cc2ccccc2)C(N)=O)C(C)C)[C@@H](C)O)C(C)C)C(C)C)C(C)C)NC(=O)[C@H](CC(C)C)NC(=O)[C@H](CCCCNC(=N)N)NC(=O)[C@H](Cc2c[nH]cn2)NC1=O)C(C)C [compound 909] (Ac-WVEH[hArg]LKGLLS[Cit]SG[Aze]VV[hArg]KNFVPTDVGPFAF-NH2; lactam 3-7),3.45 nM
6,CC(=O)N[C@@H](Cc1cccc2ccccc12)C(=O)N[C@H](C(=O)N[C@@H](CCC(=O)O)C(=O)N[C@@H](Cc1c[nH]cn1)C(=O)N[C@@H](CCCCNC(=N)N)C(=O)N[C@@H](CC(C)C)C(=O)N[C@@H](CCCCN)C(=O)NCC(=O)N[C@@H](CC(C)C)C(=O)N[C@@H](CC(C)C)C(=O)N[C@@H](CO)C(=O)N[C@@H](CCCNC(N)=O)C(=O)N[C@@H](CO)C(=O)NCC(=O)N1CC[C@H]1C(=O)N[C@H](C(=O)N[C@H](C(=O)N[C@@H](CCCCNC(=N)N)C(=O)N[C@@H](CCCCN)C(=O)N[C@@H](CC(N)=O)C(=O)N[C@@H](Cc1ccccc1)C(=O)N[C@H](C(=O)N1CCC[C@H]1C(=O)N[C@H](C(=O)N[C@@H](CC(=O)O)C(=O)N[C@H](C(=O)NCC(=O)N1CCC[C@H]1C(=O)N[C@@H](Cc1ccccc1)C(=O)N[C@@H](C)C(=O)N[C@@H](Cc1ccccc1)C(N)=O)C(C)C)[C@@H](C)O)C(C)C)C(C)C)C(C)C)C(C)C [compound 910],2.31 nM
